Results on 4 compounds are retold here after patent publication US5753704A, “Therapeutic compositions comprising unsaturated dioic acids or derivatives thereof” (Unichema Chemie B.V., priority 1992, dated 1998).

The subject of test [1] is Brevibacterium epidermidis. The test can be described thus: MIC, agar dilution technique (Table 3). It is filed as cell-based. Here is the method:
(§1) The Minimum Inhibitory Concentration (MIC) of each of various unsaturated dicarboxylic acid mixtures was determined in the presence and absence of 10% Intralipid (Kabi Pharmacia, Inc.) using the agar dilution technique for susceptibility of 32 strains of Propionibacterium acnes and of 32 strains of various genera of aerobic bacteria. The method was as set out below.
(§2) A 5% stock solution for each agent was prepared by adding 10 grams of the dioic acid material to 200 milliliters of double strength Tryptic Soy Broth (TSB), (Baltimore Biological Laboratories). The pH of each solution was adjusted to 7.0±0.2 with sodium hydroxide.
(§3) For each organic acid two sets of 200 ml capacity bottle/flasks were numbered 1 to 9. To each bottle was added 50 cc of double strength TSB. From the 5% stock solution, 50 cc of TSB were transferred to bottles #1 and #2. Serial transfers of 50 cc are made from bottle #2 through to bottle #8. Bottle #9 of each set contained only 50 cc of double strength TSB, without any dicarboxylic acid. To all 18 bottles were added 2 grams of granulated agar (BBL).
(§4) All bottles were autoclaved at 121° C., 15 psi for 15 minutes and then held at 50° C. in a water bath.
(§5) To one set of bottles #1-9 were added 50 cc of hot, sterile water. The bottles were swirled to mix the contents and 25 cc was poured into each of four petri dishes and allowed to solidify. To the second set of bottles were added 50 cc of Intralipid (pre-warmed to 50° C). The contents were then mixed and poured as above. Standard inocula of the test organisms were prepared by matching the bacterial suspension in 0.85% PSS (physiological saline solution) to a 0.5 McFarland Standard and diluting ten-fold to yield 10^7 CFU (colony forming units). The inocula were loaded into 32 wells of a steers replicator. The multi-prong inoculator delivers 0.001 to 0.002 cc resulting in a final inoculum of 10^4 CFU per spot.
(§6) Plates were inoculated from the lowest to highest concentration (to reduce the effects of "carry-over" of the inoculum), and allowed to dry. The plates were then inverted and incubated at 35° C. for 24 hours. Plates inoculated with Propionibacterium acnes strains were incubated under anaerobic conditions for seven days at 35° C.
(§7) The agent-free control plates (#9) were examined at the end of the incubation for viability and signs of contamination. End-point MIC values were determined by observing the plate of lowest concentration of agent that inhibited visible micro-organism growth.
A general note: Agar dilution tests growth on a series of plates holding different concentrations.

The test system of test [2] is Corynebacterium minutissium. Nature of the test: MIC, agar dilution technique (Table 3). It counts as cell-based. Here is the method: as §1, §2, §3, §4, §5, §6, §7
In a further test the test system is Escherichia coli. The test can be described thus: MIC, agar dilution technique (Table 3). It counts as cell-based. The following applies: Escherichia coli ATCC 25922. Here is the method: as §1, §2, §3, §4, §5, §6, §7
Another test relates to Micrococcus luteus. Nature of the test: MIC, agar dilution technique (Table 3). It is filed as cell-based. Here is the method: as §1, §2, §3, §4, §5, §6, §7
The test system of another test is Micrococcus sedentarius. Nature of the test: MIC, agar dilution technique (Table 3). It is filed as cell-based. The following applies: Micrococcus sedentarius ATCC 27574. Here is the method:
as §1, §2, §3, §4, §5, §6, §7

The test system of the next test is Propionibacterium acnes. The test can be described thus: MIC, agar dilution technique (Table 3). It counts as cell-based. Here is the method:
as §1, §2, §3, §4, §5, §6, §7

For another test, the system named is Pseudomonas aeruginosa. Nature of the test: MIC, agar dilution technique (Table 3). It is filed as cell-based. The following applies: Pseudomonas aeruginosa ATCC 27853. Here is the method:
as §1, §2, §3, §4, §5, §6, §7

In the next test the test system is Staphylococcus aureus. The test can be described thus: MIC, agar dilution technique (Table 3). It counts as cell-based. Here is the method: as §1, §2, §3, §4, §5, §6, §7
Test [3] deals with Staphylococcus epidermidis. Nature of the test: MIC, agar dilution technique (Table 3). It counts as cell-based. Here is the method: as §1, §2, §3, §4, §5, §6, §7
The test system of a further test is Candida albicans. Nature of the test: MIC, agar dilution technique (Table 3). Particulars: Candida albicans ATCC 18804. It is filed as cell-based.
The test system of a further test is P. ACNES ATCC 25746. The test can be described thus: MIC's for long chain dioic acids against P. acnes (Table 4). It is filed as cell-based, Propionibacterium acnes. The following applies: for MIC: P. acnes ATCC 25746. Here is the method: as §1, §2, §3, §4, §5
Plates were inoculated from the lowest to highest concentration (to reduce the effects of "carry-over" of the inoculum), and allowed to dry. The plates were then inverted and incubated at 35° C. for 24 hours. […]
as §7
A similar experiment was performed, using the same method, to compare the degree of inhibitory activity (for P. acnes) of azelaic acid, the C18:1 dioic acid (obtained from a substrate comprising oleic acid), a mixture of C18.1 fatty (mono-carboxylic) acid, the corresponding C18:1 and C18:2 dioic acids (obtained from a substrate comprising Linoleic acid), and the C16:1 dioic acid (obtained from a substrate comprising palmitoleic acid). The MICs for azelaic acid and the C18.1 dioic acid were essentially as before, confirming the previous results. The corresponding fatty acid had very little activity.
In experiment 4, the degree of inhibition of the azelaic acid control, and therefore of the test samples also, was slightly less than that observed in previous experiments.

The next test relates to thioredoxin reductase. Particulars: cited from earlier work.
The test system of test [4] is 32 strains of Propionibacterium acnes and 32 strains of various genera of aerobic bacteria. Nature of the test: Antimicrobial activity, summary over the range of micro-organisms. It counts as cell-based. Here is the method: as §1, §2
For each organic acid two sets of 200 ml capacity bottle/flasks were numbered 1 to 9. To each bottle was added 50 cc of double strength TSB. From the 5% stock solution, 50 cc of TSB were transferred to bottles #1 and #2. Serial transfers of 50 cc are made from bottle #2 through to bottle #8. Bottle #9 of each set contained only 50 cc of double strength TSB, without any dicarboxylic acid. To all 18 bottles were added 2 grams of granulated agar (BBL). […]
The agent-free control plates (#9) were examined at the end of the incubation for viability and signs of contamination. End-point MIC values were determined by observing the plate of lowest concentration of agent that inhibited visible micro-organism growth. […]

Setting [5] is: Brevibacterium epidermidis ATCC 35514.
Where [6] appears, read: Brevibacterium epidermidis NCDO 2285.
The mark [7] stands for this setting: Corynebacterium minutissium ATCC 23347.
Where [8] appears, read: Corynebacterium minutissium ATCC 23348.
Where [9] appears, read: Corynebacterium minutissium ATCC 23349.
The mark [10] stands for this setting: Propionibacterium acnes ATCC 6919.
[11] abbreviates: Propionibacterium acnes ATCC 29399.
Where [12] appears, read: Staphylococcus aureus ATCC 25923.
[13] abbreviates: Staphylococcus aureus ATCC 29213.
Setting [14] is: Staphylococcus aureus ATCC 35556.
The mark [15] stands for this setting: Staphylococcus epidermidis ATCC 14490.
The mark [16] stands for this setting: Staphylococcus epidermidis ATCC 31432.
[17] abbreviates: Staphylococcus epidermidis ATCC 35894.
The mark [18] stands for this setting: Expt. 4, increased incubation period of 18 days.

The structures appear in SMILES notation. “Also recorded” adds a separate entry of the source.

Consider `O=C(O)CCCCCCCC(=O)O` [Azelaic acid, azelaic acid, reference compound], for which the MIC is recorded as over 2.5% in [1] (setting [5]); over 2.5% in test [1] (setting [6]); over 2.5% in [2] (setting [7]); over 2.5% in [2] (setting [8]); over 2.5% in test [2] (setting [9]); 2.5% against Escherichia coli. The MIC is on record as over 2.5% against Micrococcus luteus (Micrococcus luteus ATCC 9341); over 2.5% against Micrococcus luteus (Micrococcus luteus ATCC 15957); 2.5% against Micrococcus luteus (Micrococcus luteus ATCC 27141); 2.5% in the test on Micrococcus sedentarius; 1.25% in the test with Propionibacterium acnes (setting [10]); 1.25% against Propionibacterium acnes (setting [11]). Also, the MIC is recorded as over 2.5% against Pseudomonas aeruginosa; 2.5% against Staphylococcus aureus (setting [12]); 2.5% against Staphylococcus aureus (setting [13]); 2.5% with Staphylococcus aureus (setting [14]); over 2.5% in test [3] (setting [15]); over 2.5% in [3] (setting [16]). Further, the MIC in test [3] (setting [17]) is given as over 2.5%; in the test on Candida albicans it was over 2.5%; in the test with P. ACNES ATCC 25746 (Expt. 1, incubation 7 days) it was 5%; with P. ACNES ATCC 25746 (Expt. 2, incubation 7 days) it was 5%; against P. ACNES ATCC 25746 (Expt. 3, incubation 7 days), 5%; against P. ACNES ATCC 25746 (setting [18]), over 5%. Also, the “inhibition of thioredoxin reductase” value in the test with thioredoxin reductase is reported as “inhibits thioredoxin reductase”.

`O=C(O)CCCCCC=CCCCCCCCC(=O)O` [C16:1 dioic acid ex Palmitoleic acid] gave an MIC in the test with P. ACNES ATCC 25746 (setting [18]) of 0.16%.

Take `CCCCCCCC/C=C\CCCCCCCC(=O)O` [C18:1 Fatty acid, oleic acid, reference compound]: in the test with P. ACNES ATCC 25746 (P. acnes), the “inhibitory activity compared with azelaic acid” value is given as “less active than azelaic acid”. The MIC against P. ACNES ATCC 25746 (Expt. 3, incubation 7 days) is over 5%.

With `O=C(O)CCCCCCC/C=C\CCCCCCCC(=O)O` [C18:1 dioic acid ex Oleic acid], the MIC is 0.15% in test [1] (setting [5]); 0.15% in [1] (Brevibacterium epidermidis ATCC 35514, + "Intralipid"); 0.15% in [1] (setting [6]); 0.15% in test [1] (Brevibacterium epidermidis NCDO 2285, + "Intralipid"); 0.15% in [2] (setting [7]); 0.15% in test [2] (Corynebacterium minutissium ATCC 23347, + "Intralipid"). Also, the MIC in [2] (setting [8]) is given as 0.15%; in test [2] (Corynebacterium minutissium ATCC 23348, + "Intralipid"), 0.15%; in test [2] (setting [9]), 0.15%; in [2] (Corynebacterium minutissium ATCC 23349, + "Intralipid") it was 0.15%; with Escherichia coli it was over 2.5%; in the test on Escherichia coli (+ "Intralipid") it was over 2.5%. Moreover, the MIC against Micrococcus luteus (Micrococcus luteus ATCC 9341) is listed as 0.15%; in the test with Micrococcus luteus (Micrococcus luteus ATCC 9341, + "Intralipid"), 0.07%; against Micrococcus luteus (Micrococcus luteus ATCC 15957) it was 0.15%; in the test with Micrococcus luteus (Micrococcus luteus ATCC 15957, + "Intralipid") it was 0.07%; against Micrococcus luteus (Micrococcus luteus ATCC 27141) it was 0.15%; in the test on Micrococcus luteus (Micrococcus luteus ATCC 27141, + "Intralipid"), 0.07%. In addition, the MIC against Micrococcus sedentarius is on record as 0.15%; in the test on Micrococcus sedentarius (+ "Intralipid") it was 0.07%; against Propionibacterium acnes (setting [10]), 0.04%; in the test with Propionibacterium acnes (Propionibacterium acnes ATCC 6919, + "Intralipid"), 0.02%; against Propionibacterium acnes (setting [11]), 0.04%; with Propionibacterium acnes (Propionibacterium acnes ATCC 29399, + "Intralipid"), 0.02%. Moreover, the MIC with Pseudomonas aeruginosa is over 2.5%; with Pseudomonas aeruginosa (+ "Intralipid") it was over 2.5%; in the test on Staphylococcus aureus (setting [12]) it was 0.07%; with Staphylococcus aureus (Staphylococcus aureus ATCC 25923, + "Intralipid") it was 0.15%; against Staphylococcus aureus (setting [13]), 0.15%; with Staphylococcus aureus (Staphylococcus aureus ATCC 29213, + "Intralipid"), 0.31%. Further, the MIC in the test on Staphylococcus aureus (setting [14]) stood at 0.07%; in the test with Staphylococcus aureus (Staphylococcus aureus ATCC 35556, + "Intralipid") it was 0.31%; in test [3] (setting [15]), 0.31%; in test [3] (Staphylococcus epidermidis ATCC 14490, + "Intralipid"), 0.31%; in test [3] (setting [16]), 0.31%; in [3] (Staphylococcus epidermidis ATCC 31432, + "Intralipid") it was 0.31%. Further, the MIC in test [3] (setting [17]) is 0.31%; in [3] (Staphylococcus epidermidis ATCC 35894, + "Intralipid"), 0.31%; against Candida albicans, over 2.5%; in the test on Candida albicans (+ "Intralipid"), over 2.5%; in the test with P. ACNES ATCC 25746 (Expt. 1, incubation 7 days), 0.04%; in the test with P. ACNES ATCC 25746 (Expt. 2, incubation 7 days), 0.04%. In addition, the MIC in the test with P. ACNES ATCC 25746 (Expt. 3, incubation 7 days) turned out to be 0.04%; against P. ACNES ATCC 25746 (setting [18]), 0.08%. Besides, the “activity relative to azelaic acid” value with P. ACNES ATCC 25746 (P. acnes, fold of the activity of azelaic acid) is reported as about 100 ×. Further, the “effect of the presence or absence of "Intralipid" on MIC” value in test [4] (10% Intralipid, listed as C18:1 mono-unsaturated compound) is “increased the MIC for taph. aureus; also recorded: decreased the MIC for P. acnes and M. luteus”. Besides, in test [4] (Table 3 micro-organisms), the “anti-microbial activity compared with azelaic acid” value is recorded as “many times greater than that for azelaic acid”.
